Experiment: Solubility in ethanol when preparing stock solution
Assay type: physicochemical
Settings: stock solution 20 mg/ml prepared in acetonitrile instead
Description: In another experiment, a liposome comprising the TB4 prodrug (denoted LNP-TB4) was synthesized in the following manner. Briefly, In the first step, a lipid stock solution of POPC (1-palmitoyl-2-oleoyl-glycero-3-phosphocholine), CHOL, and DSPE-PEG, was prepared in ethanol (20 mg/ml) separately. […] The of lipid mixture of POPC, CHOL, TB4+Stearic Acid and DSPE-PEG was mixed together at a molar ratio of 51:29:16.5:3.5, and subsequently diluted with ethanol to get a total lipid concentration of 10 mg/ml. This lipid mixture was heated at 55-60 degree Centigrade using the heating block attachment in the microfluidizer. Similarly, the aqueous phase containing 1 mM PBS buffer was also preheated at 55-60 degree centigrade before passing through the microfluidics cartridge at the flow rate of 5:1 (aqueous:organic phase, lipid mixture). The solvent was removed using dialysis membrane of cut off 12 KDa size (Sigma Aldrich) against DI water for at least 24 hrs. The Dialysis water was changed at least 5 times during the period of 24 hrs. to maximize the removal of the solvent. After the removal of the solvent, the LNP-TB4 was concentrated according to the need using Amicon centrifugal filtration device (cut off size 10 KDa, at 3000 g).
In another experiment, a liposome comprising the TB4 prodrug (denoted LNP-TB4) was co-formulated with ID3 and synthesized in the following manner. […]

CCCCCCCCCCCCCCCCCC(=O)OCOC(=O)N(C(=O)c1ccc(-c2cc(-c3c[nH]nc3-c3ccccn3)ccn2)cc1)C1CCOCC1 [TB4 prodrug]
solubility in ethanol (in words): not soluble in ethanol
